In ChEMBL document CHEMBL1134446, “Polyamine analogue antidiarrheals: a structure-activity study” (J Med Chem, 2001):
Several values for one entry are separate records, joined by “and”; a condition that tells them apart may be missing. Identical values can stand only once.

Assays:
Canis familiaris [1] = test: putrescine Distribution in liver was determined after DESPM dosing of 1.87 mg/kg/day for 28 days in dog(cu dose-52.4) and sacrificed at 10 days PLD(cu dose-52.4 mg/kg); format: ADME, organism-based, Canis lupus familiaris; conditions: in vivo, 240 h
Canis familiaris [2] = test: MESPM/MEHSPH Distribution in kidney was determined after DESPM dosing of 8.0 mg/kg/day for 4.5 days in dog(cu dose-52.4) and sacrificed at 10 days PLD(cu dose-36 mg/kg); format: ADME, organism-based, Canis lupus familiaris; conditions: in vivo, 240 h
Rattus norvegicus [3] = test: Percent reduction was determined by using the ratio of mean of treated animal to that of control animal at a dose of 14.3 mg/kg; format: functional
Canis familiaris [4] = test: putrescine Distribution in kidney was determined after DESPM dosing of 1.87 mg/kg/day for 28 days in dog and sacrificed at 10 days PLD(cu dose-52.4 mg/kg); format: ADME, organism-based, Canis lupus familiaris; conditions: in vivo, 240 h
Canis familiaris [5] = test: Spermine Distribution in liver was determined after DESPM dosing of 4 mg/kg/day for 13 days in dog(cu dose-52.4) and sacrificed at 75 days PLD(cu dose-52 mg/kg); format: ADME, organism-based, Canis lupus familiaris; conditions: in vivo, 1800 h
Canis familiaris [6] = test: MESPM/MEHSPH Distribution in liver was determined after DESPM dosing of 1.87 mg/kg/day for 28 days in dog(cu dose-52.4) and sacrificed at 10 days PLD(cu dose-52.4 mg/kg); format: ADME, organism-based, Canis lupus familiaris; conditions: in vivo, 240 h
Canis familiaris [7] = test: MESPM/MEHSPH Distribution in kidney was determined after DESPM dosing of 4 mg/kg/day for 13 days in dog(cu dose-52.4) and sacrificed at 75 days PLD(cu dose-52 mg/kg); format: ADME, organism-based, Canis lupus familiaris; conditions: in vivo, 1800 h
Canis familiaris [8] = test: MESPM/MEHSPH Distribution in liver was determined after DESPM dosing of 8.0 mg/kg/day for 4.5 days in dog(cu dose-52.4) and sacrificed at 10 days PLD(cu dose-36 mg/kg); format: ADME, organism-based, Canis lupus familiaris; conditions: in vivo, 240 h
Canis familiaris [9] = test: putrescine Distribution in kidney was determined after DESPM dosing of 8.0 mg/kg/day for 4.5 days in dog and sacrificed at 75 days PLD(cu dose-36 mg/kg); format: ADME, organism-based, Canis lupus familiaris; conditions: in vivo, 1800 h
Canis familiaris [10] = test: MESPM/MEHSPH Distribution in kidney was determined after DESPM dosing of 6.0 mg/kg/day for 4.5 days in dog(cu dose-52.4) and sacrificed at 75 days PLD(cu dose-27 mg/kg); format: ADME, organism-based, Canis lupus familiaris; conditions: in vivo, 1800 h
Canis familiaris [11] = test: Spermine Distribution in liver was determined after DESPM dosing of 1.87 mg/kg/day for 28 days in dog(cu dose-52.4) and sacrificed at 10 days PLD(cu dose-52.4 mg/kg); format: ADME, organism-based, Canis lupus familiaris; conditions: in vivo, 240 h
Canis familiaris [12] = test: MESPM/MEHSPH Distribution in liver was determined after DESPM dosing of 4 mg/kg/day for 13 days in dog(cu dose-52.4) and sacrificed at 75 days PLD(cu dose-52 mg/kg); format: ADME, organism-based, Canis lupus familiaris; conditions: in vivo, 1800 h
Canis familiaris [13] = test: Spermine Distribution in liver was determined after DESPM dosing of 8.0 mg/kg/day for 4.5 days in dog(cu dose-52.4) and sacrificed at 10 days PLD(cu dose-36 mg/kg); format: ADME, organism-based, Canis lupus familiaris; conditions: in vivo, 240 h
Canis familiaris [14] = test: MESPM/MEHSPH Distribution in liver was determined after DESPM dosing of 1.87 mg/kg/day for 28 days in dog(cu dose-52.4) and sacrificed at 75 days PLD(cu dose-52.4 mg/kg); format: ADME, organism-based, Canis lupus familiaris; conditions: in vivo, 1800 h
Rattus norvegicus [15] = test: Stool output of rat over the 6-h collection period when a dose of 0 mg/kg (0 administered; format: functional
Rattus norvegicus [16] = test: Weight loss of rat over the 6-h experimental period when a dose of 14.3 mg/kg (35.4 administered; format: functional
Rattus norvegicus [17] = test: Percent reduction was determined by using the ratio of mean of treated animal to that of control animal at a dose of 94 mg/kg; format: functional
Canis familiaris [18] = test: Distribution in liver was determined after DESPM dosing of 4 mg/kg/day for 13 days in dog(cu dose-52.4) and sacrificed at 10 days PLD(cu dose-52 mg/kg); format: ADME, organism-based, Canis lupus familiaris; conditions: in vivo, 240 h
Canis familiaris [19] = test: Distribution in kidney was determined after DESPM dosing of 8.0 mg/kg/day for 4.5 days in dog(cu dose-52.4) and sacrificed at 10 days PLD(cu dose-36 mg/kg); format: ADME, organism-based, Canis lupus familiaris; conditions: in vivo, 240 h
Canis familiaris [20] = test: HSPM Distribution in liver was determined after DEHSPM dosing of 2.0 mg/kg/day for 29 days in dog(cu dose-52.4) and sacrificed at 10 days PLD(cu dose-22 mg/kg); format: ADME, organism-based, Canis lupus familiaris; conditions: in vivo, 240 h
Canis familiaris [21] = test: Spermine Distribution in liver was determined after DEHSPM dosing of 2.0 mg/kg/day for 29 days in dog(cu dose-52.4) and sacrificed at 10 days PLD(cu dose-58 mg/kg); format: ADME, organism-based, Canis lupus familiaris; conditions: in vivo, 240 h
Canis familiaris [22] = test: Spermine Distribution in kidney was determined after DEHSPM dosing of 2.0 mg/kg/day for 29 days in dog(cu dose-52.4) and sacrificed at 10 days PLD(cu dose-58 mg/kg); format: ADME, organism-based, Canis lupus familiaris; conditions: in vivo, 240 h
Canis familiaris [23] = test: Distribution in kidney was determined after DESPM dosing of 6.0 mg/kg/day for 4.5 days in dog(cu dose-52.4) and sacrificed at 10 days PLD(cu dose-27 mg/kg); format: ADME, organism-based, Canis lupus familiaris; conditions: in vivo, 240 h
Canis familiaris [24] = test: Spermine Distribution in kidney was determined after DEHSPM dosing of 2.0 mg/kg/day for 29 days in dog(cu dose-52.4) and sacrificed at 10 days PLD(cu dose-22 mg/kg); format: ADME, organism-based, Canis lupus familiaris; conditions: in vivo, 240 h
Canis familiaris [25] = test: Spermidine Distribution in kidney was determined after DEHSPM dosing of 2.0 mg/kg/day for 29 days in dog(cu dose-52.4) and sacrificed at 10 days PLD(cu dose-58 mg/kg); format: ADME, organism-based, Canis lupus familiaris; conditions: in vivo, 240 h
Canis familiaris [26] = test: Distribution in kidney was determined after DESPM dosing of 6.0 mg/kg/day for 4.5 days in dog(cu dose-52.4) and sacrificed at 75 days PLD(cu dose-27 mg/kg); format: ADME, organism-based, Canis lupus familiaris; conditions: in vivo, 1800 h
Canis familiaris [27] = test: Distribution in liver was determined after DESPM dosing of 1.87 mg/kg/day for 28 days in dog(cu dose-52.4) and sacrificed at 10 days PLD(cu dose-52.4 mg/kg); format: ADME, organism-based, Canis lupus familiaris; conditions: in vivo, 240 h
Canis familiaris [28] = test: putrescine putrescine Distribution in kidney was determined after DEHSPM dosing of 2.0 mg/kg/day for 29 days in dog(cu dose-52.4) and sacrificed at 10 days PLD(cu dose-58 mg/kg); format: ADME, organism-based, Canis lupus familiaris; conditions: in vivo, 240 h
Canis familiaris [29] = test: MESPM/MEHSPH Distribution in kidney was determined after DEHSPM dosing of 2.0 mg/kg/day for 29 days in dog(cu dose-52.4) and sacrificed at 10 days PLD(cu dose-58 mg/kg); format: ADME, organism-based, Canis lupus familiaris; conditions: in vivo, 240 h
Canis familiaris [30] = test: Spermidine Distribution in liver was determined after DEHSPM dosing of 2.0 mg/kg/day […] in dog(cu dose-52.4) and sacrificed at 10 days PLD(cu dose-22 mg/kg); format: ADME, organism-based, Canis lupus familiaris; conditions: in vivo, 240 h
Canis familiaris [31] = test: Distribution in kidney was determined after DESPM dosing of 4 mg/kg/day for 13 days in dog(cu dose-52.4) and sacrificed at 75 days PLD(cu dose-52 mg/kg); format: ADME, organism-based, Canis lupus familiaris; conditions: in vivo, 1800 h
Canis familiaris [32] = test: Spermine Distribution in liver was determined after DEHSPM dosing of 2.0 mg/kg/day for 29 days in dog(cu dose-52.4) and sacrificed at 10 days PLD(cu dose-22 mg/kg); format: ADME, organism-based, Canis lupus familiaris; conditions: in vivo, 240 h

Compound: CCNCCCNCCCCNCCCNCC [BIS(ETHYL)SPERMINE]
- Wet weight of tissue (Canis familiaris [1]): 86 nM/g
- Wet weight of tissue (Canis familiaris [2]): 12 nM/g
- Reduction (Rattus norvegicus [3]): 66% and 92%
- Wet weight of tissue (Canis familiaris [4]): 0 nM/g
- Wet weight of tissue (Canis familiaris [5]): 886 nM/g
- Wet weight of tissue (Canis familiaris [6]): 7 nM/g
- Wet weight of tissue (Canis familiaris [7]): 0 nM/g
- Wet weight of tissue (Canis familiaris [8]): 21 nM/g
- Wet weight of tissue (Canis familiaris [9]): 6 nM/g
- Wet weight of tissue (Canis familiaris [10]): 0 nM/g
- Wet weight of tissue (Canis familiaris [11]): 850 nM/g
- Wet weight of tissue (Canis familiaris [12]): 0 nM/g
- Wet weight of tissue (Canis familiaris [13]): 937 nM/g
- Wet weight of tissue (Canis familiaris [14]): 0 nM/g
- Stool output (Rattus norvegicus [15]): 7.5 g (350g of rat weight)-1
- Weight loss (Rattus norvegicus [16]): <4.4 g
- Reduction (Rattus norvegicus [17]): 100%

Compound: CCNCCCCNCCCCNCCCCNCC [DIETHYLHOMOSPERMINE]
- Wet weight of tissue (Canis familiaris [18]): 36 nM/g
- Wet weight of tissue (Canis familiaris [19]): 48 nM/g
- Wet weight of tissue (Canis familiaris [20]): 668 nM/g
- Wet weight of tissue (Canis familiaris [21]): 108 nM/g
- Wet weight of tissue (Canis familiaris [22]): 275 nM/g
- Wet weight of tissue (Canis familiaris [23]): 44 nM/g
- Wet weight of tissue (Canis familiaris [24]): 611 nM/g
- Wet weight of tissue (Canis familiaris [25]): 41 nM/g
- Wet weight of tissue (Canis familiaris [26]): 0 nM/g
- Wet weight of tissue (Canis familiaris [27]): 18 nM/g
- Wet weight of tissue (Canis familiaris [28]): 5 nM/g
- Wet weight of tissue (Canis familiaris [29]): 78 nM/g
- Wet weight of tissue (Canis familiaris [30]): 68 nM/g
- Wet weight of tissue (Canis familiaris [31]): 0 nM/g
- Wet weight of tissue (Canis familiaris [32]): 386 nM/g
